Reference: article PMC6272715, “Discovery of Novel Small Molecule Anti-HCV Agents via the CypA Inhibitory Mechanism Using O-Acylation-Directed Lead Optimization” (Molecules, 2015)
Read-outs that look alike come from different tables or passages of the source.

Tests used:
HCV Con1-1b replicon = assay: HCV Con1-1b subgenomic replicon assay; format: cell-based; conditions: Hepatitis C virus; Table 4; read-out: Anti-HCV Activity EC50 ± SD Replicon Assay Con1-1b
JFH1-2a (S282T) virus = assay: HCV virus assay, mutant JFH1-2a (S282T) virus strain; format: cell-based; conditions: Hepatitis C virus, read-out: Anti-HCV Activity (Virus Assay) EC50 ± SD JFH1-2a (S282T)
HCV JFH1-2a replicon = assay: HCV JFH1-2a subgenomic replicon assay (Renilla luciferase, Huh 7.5.1 replicon cells); format: cell-based; conditions: Hepatitis C virus
HCV H77-1a replicon = assay: HCV H77-1a subgenomic replicon assay; format: cell-based; conditions: Hepatitis C virus; Table 4; read-out: Anti-HCV Activity EC50 ± SD Replicon Assay H77-1a
T spleen cells = assay: Spleen cells proliferation inhibition assay (MTT), T spleen cells; format: cell-based, mouse (ICR); conditions: mouse spleen cells, 72 h, read-out: T Spleen Cells IC50 ± SD
Method: Preparation of Splenocyte Suspension: The spleen was aseptically taken from female ICR mice strains (6–8 weeks-old, 20 ± 2 g), crushed gently and separated into single cells by squeezing in 20 mL RPMI 1640 medium (Invitrogen, shanghai, China). The cells obtained were passed through […] nylon cell strainer and centrifuged at 1000 rpm∙min^−1 for 5 min at RT. Pellets were added into 10 mL erythrocytes lysis buffer (150 mM NH4Cl, 10 mM KHCO3 and 0.1 mM EDTA) followed by centrifugation to remove erythrocytes. After washing twice with complete medium (RPMI 1640 containing 100 U∙mL^−1 of penicillin, 100 U∙mL^−1 of streptomycin and 10% FBS), they were re-suspended in the complete medium and used for cell culture.
After 72 h of incubation, the cell growth was evaluated with MTT assay. The assay plates were added 10 μL of 5 mg∙mL^−1 MTT per well and incubated for 4 h. The formazan generated was solubilized with 100 μL of solution (10% SDS, 5% isobutyl alcohol, and 10 mM HCl) after incubated at 37 °C overnight. The absorption at 580 nm relative to 680 nm was measured by SpectraMax Plus 384 Reader (Molecular Devices, Shanghai, China).

[1] = rats, intravenous injection of 25 (2 mg∙kg^−1)
in vivo = conditions: male, SD, rat, iv, i.v. 2 mg 25/kg; for AUC(0-inf): AUC0-∞
[2] = Cell proliferation (cytotoxicity) assay, WST-1; format: cell-based; conditions: human
Method: Cell Proliferation Assay: Huh 7.5.1 cells were seeded at a density of 2 × 10^4 cells per well in 96-well plates overnight. The cells were respectively incubated with serial diluted compounds for 48 h, and the viability of Huh7.5.1 cells was determined in 96-well tissue culture plates using cell proliferation reagent WST-1 (Roche, Basel, Switzerland). The absorbance (OD450 /reference OD630) was measured to detect the cytotoxicity of compounds, according to the manufacturer’s protocol of Cell Proliferation Reagent WST-1.

B spleen cells = assay: Spleen cells proliferation inhibition assay (MTT), B spleen cells; format: cell-based, mouse (ICR); conditions: mouse spleen cells, 72 h, read-out: B Spleen Cells IC50 ± SD
Method: Preparation of Splenocyte Suspension: The spleen was aseptically taken from female ICR mice strains (6–8 weeks-old, 20 ± 2 g), crushed gently and separated into single cells by squeezing in 20 mL RPMI 1640 medium (Invitrogen, shanghai, China). The cells obtained were passed through 70 μM nylon cell strainer and centrifuged at 1000 rpm∙min^−1 for 5 min at RT. Pellets were added into 10 mL erythrocytes lysis buffer (150 mM NH4Cl, 10 mM KHCO3 and 0.1 mM EDTA) followed by centrifugation to remove erythrocytes. After washing twice with complete medium (RPMI 1640 containing 100 U∙mL^−1 of penicillin, 100 U∙mL^−1 of streptomycin and 10% FBS), they were re-suspended in the complete medium and used for cell culture.

[3] = test system: JFH1-2a virus (wild type); assay: HCV virus assay, JFH1-2a wild type, Huh 7.5.1 cells; conditions: Hepatitis C virus
HCV subgenomic replicon = conditions: cited from earlier work
[4] = SD rats, Mean ± SD (Rat 1 and 3)
[5] = Huh-7.5.1, read-out: Anti-HCV Activity (Virus Assay) EC50 ± SD JFH1-2a (Wild Type)

O=C(NC(=O)c1c(O)cccc1O)NC1c2ccccc2-c2ccccc21 [Compound 1]
EC50 (HCV Con1-1b replicon): 780 ± 190 nM | EC50 (JFH1-2a (S282T) virus): 560 ± 130 nM | EC50 (HCV JFH1-2a replicon; Table 1, mean ± SD of three independent experiments, read-out: Anti-HCV JFH1-2a Replicon Assay EC50 ± SD): 920 ± 120 nM | EC50 (HCV JFH1-2a replicon; Table 4, read-out: Anti-HCV Activity EC50 ± SD Replicon Assay JFH1-2a): 920 ± 120 nM | EC50 (HCV H77-1a replicon): 1110 ± 330 nM | IC50 (T spleen cells): 33000 ± 5720 nM | plasma concentration after 5 min (mean ± SD) [1]: 904.5 ± 291.9 ng/mL | AUC(0-inf) (in vivo; SD rat, Rat 1): 335 ng·h/mL | AUC(0-inf) (in vivo; SD rat, Rat 3): 324 ng·h/mL | AUC(0-inf) (in vivo; [4]): 329 ± 8.08 ng·h/mL | Cmax (in vivo; SD rat, Rat 1): 698 ng/mL | Cmax (in vivo; SD rat, Rat 3): 1110 ng/mL | Cmax (in vivo; [4]): 904 ± 292 ng/mL | MRT (in vivo; SD rat, Rat 1): 0.94 h | MRT (in vivo; SD rat, Rat 3): 0.55 h | MRT (in vivo; [4]): 0.75 ± 0.28 h | half-life (in vivo; t1/2, SD rat, Rat 1): 1.84 h | half-life (in vivo; t1/2, SD rat, Rat 3): 1.21 h | half-life (in vivo; t1/2, SD rats, Mean ± SD (Rat 1 and 3)): 1.53 ± 0.45 h | CC50 at 48 h ([2]; Huh 7.5.1 cells, Table 4, 48 h): > 16000 nM | CC50 at 48 h ([2]; Huh 7.5.1 cells, Table 5): > 20000 nM | IC50 (B spleen cells): 51900 ± 8680 nM | EC50 [3, 5]: 520 ± 160 nM | EC50 ([3]; Huh-7.5.1, read-out: Anti-HCV Activity EC50 ± SD Virus Assay JFH1-2a): 670 ± 230 nM

C/C=C/C[C@@H](C)[C@@H](O)[C@H]1C(=O)N[C@@H](CC)C(=O)N(C)[C@H](SCCN(C)C)C(=O)N(C)[C@@H](CC(C)(C)O)C(=O)N[C@@H](C(C)C)C(=O)N(C)[C@@H](CC(C)C)C(=O)N[C@@H](C)C(=O)N[C@H](C)C(=O)N(C)[C@@H](CC(C)C)C(=O)N(C)[C@@H](CC(C)C)C(=O)N(C)[C@@H](C(C)C)C(=O)N1C [SCY-635]
EC50 (HCV subgenomic replicon; ref [27], read-out: EC50 (subgenomic replicon assay, con1-derived)): 100 nM

CC(C)OC(=O)[C@H](C)N[P@](=O)(OC[C@H]1O[C@@H](n2ccc(=O)[nH]c2=O)[C@](C)(F)[C@@H]1O)Oc1ccccc1 [Sofosbuvir, reference compound]
EC50 (JFH1-2a (S282T) virus): 1140 ± 210 nM | CC50 at 48 h ([2]; Table 5): > 20000 nM | EC50 [3, 5]: 220 ± 70 nM

C/C=C/C[C@@H](C)[C@@H](O)[C@H]1C(=O)N[C@@H](CC)C(=O)N(C)[C@H](C)C(=O)N(CC)[C@@H](C(C)C)C(=O)N[C@@H](C(C)C)C(=O)N(C)[C@@H](CC(C)C)C(=O)N[C@@H](C)C(=O)N[C@H](C)C(=O)N(C)[C@@H](CC(C)C)C(=O)N(C)[C@@H](CC(C)C)C(=O)N(C)[C@@H](C(C)C)C(=O)N1C [alisporivir]
EC50 (HCV subgenomic replicon; ref [6], read-out: EC50 (subgenomic replicon assay)): 45 nM
